In series [1] the test system is Gardiquimod-Induced IL-6 in Human Blood. As to the kind of experiment: Gardiquimod-induced IL-6 in human whole blood. The format is cell-based. As to conditions: Gardiquimod 4 μg/ml overnight, read-out: Human Whole Blood Assays (IC5050), IL-6 Gard. On the procedure:
To assess the effect of whole blood on the potency of compound I-1 and Comparison-1, the compounds were evaluated for their inhibitory potential on TLR dependent cytokine release in human blood. Freshly drawn peripheral blood from healthy volunteers was incubated with test compound and stimulated overnight with LPS or Gardiquimod. The serum was isolated after centrifugation and TNF-α and IL-6 were measured by ELISA.
Whole blood of healthy volunteers was collected in Vacutainer containing Sodium Heparin and 40 μL of blood was plated to each well. Compound was serially diluted in DMSO from 2 mM in 3-fold dilutions, and then diluted 1:100 in media with 10% FBS. 50 μL of 2× compound per well in duplicate was added to each well and incubated for one hour. 10 μL Gardiquimod was added to each well at a final concentration of 4 μg/ml and cells were incubated overnight.
100 μL of PBS was added to each well and centrifuged for 10 minutes at 1000 RPM 25 μL of supernatant were taken, and IL-6 was measured by Luminex Flexmap 3d.

For a further series, the target named is T1, IRAK4 (Homo sapiens, UniProt Q9NWZ3).
T1 construct: purchased Signalchem I12-10G-20
T1 sequence (Q9NWZ3 1-460): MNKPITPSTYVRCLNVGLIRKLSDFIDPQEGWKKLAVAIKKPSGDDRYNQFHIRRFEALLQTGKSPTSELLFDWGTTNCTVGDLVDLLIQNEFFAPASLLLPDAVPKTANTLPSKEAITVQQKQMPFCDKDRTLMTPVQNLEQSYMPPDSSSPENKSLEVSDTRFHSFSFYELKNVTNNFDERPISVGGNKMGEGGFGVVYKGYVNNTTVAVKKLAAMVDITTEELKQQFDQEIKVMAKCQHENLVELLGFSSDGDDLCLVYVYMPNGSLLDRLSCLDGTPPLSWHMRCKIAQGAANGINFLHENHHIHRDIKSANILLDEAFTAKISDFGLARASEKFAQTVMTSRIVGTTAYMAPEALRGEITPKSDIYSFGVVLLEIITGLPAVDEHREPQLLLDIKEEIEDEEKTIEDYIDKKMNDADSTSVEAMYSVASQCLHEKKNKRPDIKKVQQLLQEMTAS
As to the kind of experiment: IRAK4 ADP-Glo kinase assay. Type of series: biochemical. The settings on record: for IC50: n >= 3. On the procedure: The ADP-Glo™ reagents were thawed at ambient temperature. The Kinase Detection Reagent was prepared by mixing kinase detection buffer with the lyophilized kinase detection substrate, and set aside.
A stock volume of 5× Reaction Kinase Buffer was made with a final concentration of 100 mM MgCl2, 200 mM Tris-HCl, and 0.5 mg/ml of BSA, in distilled H2O with a final pH7.4. A 2× working stock volume of Reaction Kinase Buffer was made containing a final concentration of 100 μM DTT.
The components of IRAK4 Enzyme were thawed on ice. Diluted IRAK4 in 1× Kinase Reaction Buffer (diluted from 2× buffer) was prepared at […]. A 250 μM working stock ATP Assay Solution was prepared in 1× Kinase Reaction Buffer (diluted from 2× buffer).
The compound was diluted in DMSO from 250 µM in 4-fold series dilutions for 8 points. Then diluted 1:5 in 2× Reaction Buffer in a 96 well plate. 1.0 μl was transferred to a 384 well plate in duplicate. […] 1 μl of 1 mg/ml stock solution of MBP substrate was added NOTE: MBP can be combined with ATP mix with equal volume and then added at 2 μl/well. Final reaction volume was 5 μl. The plate was centrifuged and the reaction mixture was incubated at room temperature for 60 minutes or at 30° C. for 30 minutes.
The reaction was terminated and the remaining ATP was depleted by adding 5 μl of ADP-Glo™ Reagent. The 384-well plate was centrifuged and then the reaction mixture was incubated for another 40 minutes at ambient temperature.
10 μl of the Kinase Detection Reagent was added. The plate was centrifuged and then the reaction mixture was incubated for another 30 minutes at ambient temperature.
The 384-well reaction plate was read using the WALLAC plate reader (Luminescence 0.1s).
On the technique in general: ADP-Glo first removes unused ATP, then detects ADP through luciferase.

A short description of series [2]: Plasma protein binding, equilibrium dialysis (RED), dog. The format is in vitro ADME. The settings on record: drug 5 μM; for fraction unbound at 5 μM: read-out: % bound (converted). On the procedure:
Brain and plasma drug binding were performed by equilibrium dialysis using the Rapid Equilibrium Dialysis (RED) device. Briefly, 300 μL of plasma or brain homogenate (1 brain/3 buffer) containing drug (5 μM) was equilibrated (4-18 h) against 500 μL of buffered saline. After incubation, the concentration of drug in plasma/brain homogenate and buffer was determined by LC-MS/MS.
Recovery is calculated by determining the total amount of drug in 50 μL of plasma and 50 μL buffer after the incubation and comparing that value to the amount of drug in 50 μL of a plasma sample that was not incubated. For the protein binding assay, drug was added to the plasma and this plasma was added to one side of the dialysis device while buffer was added to the other. After filing the plasma chamber of the equilibrium device, a 50 μL aliquot of plasma was mixed with 50 μL of buffer and then quenched with stop reagent. Drug recovery=(Drug buffer+Drug plasma)/(drug in initial plasma)
In general terms: In equilibrium dialysis only unbound substance equilibrates across the membrane.

Series [3] concerns TLR7-Induced TNF-α in Human Peripheral Blood Mononuclear Cells (PBMC). The series is described as follows: TLR7-induced TNF-α in human PBMC (resiquimod). Type of series: cell-based. The settings on record: resiquimod 0.1 μg/ml, read-out: Cell Assays IC50, TNFα (PBMC, resiquimod). On the procedure:
Human peripheral blood mononuclear cells (PBMC) were seeded at 100,000 cells per well in 100 μL of RPMI with 10% FCS and primed overnight with 8 ng/ml of IFN-β at 37° C., 5% CO2. Compound was serially diluted in DMSO from 2 mM in 3-fold dilutions, and then diluted 1:100 in RPMI 1640 complete media with 10% FBS (2× stock). The PBMCs were pre-incubated with test compound for 1 hour at 37° C., 5% CO2 by adding 100 μL of RPMI media containing 2× concentrated test compound per well (0.5% final DMSO concentration).
The PBMCs were stimulated with resiquimod (10 μL per well of 21× concentrated resiquimod solution in RPMI media to give a final concentration of 0.1 μg/ml) at 37° C., 5% CO2 for an additional 18 hours. 100 μL of supernatant per well was harvested to measure TNF-α. TNF-α was quantitated using DuoSet ELISA Kit per manufacturer's protocol.

Broadly, the EC50 is the concentration at which the effect is half-maximal. For the molecule `CCO[C@H]1CC[C@H](n2cc(NC(=O)c3csc(-c4cn[nH]c4)n3)c(-c3ncccn3)n2)CC1` [Compound I-1, N-(1-((1r,4r)-4-ethoxycyclohexyl)-3-(pyrimidin-2-yl)-1H-pyrazol-4-yl)-2-(1H-pyrazol-4-yl)thiazole-4-carboxamide], the IC50 was found to be 124 nM in series [1], 7 ± 4 nM at IRAK4 and 3 nM in series [3]. In addition, the concentration giving a half-maximal response (EC50) at IRAK4 (read-out: IRAK4 ADP-Glo Kinase, 8 pt EC50) amounted to 7 nM. The same molecule yielded a recovery at 5 μM in series [2] of 70.7%. Moreover, in series [2], the fraction unbound at 5 μM was 0.066.

Turning to `CCO[C@H]1CC[C@H](n2cc(NC(=O)c3csc(-c4cn[nH]c4)n3)c(-c3nc(F)ccc3F)n2)CC1` [Comparison-1, reference compound], the IC50 in series [1] amounted to 1400 nM; at IRAK4 it was 6 ± 6 nM; in series [3], 15 nM. The molecule also gave a recovery at 5 μM in series [2] of 77.2%. For the same molecule, the fraction unbound at 5 μM in series [2] is 0.01.

The values are drawn from patent publication US12384775B2, “Pyrimid-2-yl-pyrazole compounds as IRAK inhibitors” (Rigel Pharmaceuticals, Inc., priority 2022, dated 2025).
